In US20050002876A1, “Oral care methods and products” (priority 2003, published 2005):

Tested on: human umbilical vein endothelial cells (HUVEC)
Assay: Copper-induced IL-8 release from HUVEC (IL-8 ELISA)
Type: cell-based

[Cl][Cu][Cl] [CuCl2]
IL-8 secretion as compared to controls incubated with water (50 μM CuCl2, 24 hours): > 2 fold

NCCNCCNCCN [trientine, N,N′-bis(2-aminoethyl)-1,2-ethanediamine]
IL-8 secretion caused by CuCl2 (50 μM CuCl2 + 50, 100, 150 or 250 μM Syprine trientine hydrochloride, 24 hours, serum-free medium): significantly inhibited copper-induced endothelial cell IL-8 secretion
